{"source": "patent US7230033B2", "about": "“Pest control compositions and methods for their use” (United States of America as represented by the Secretary of …, priority 2000, dated 2007)", "key": {"[1]": {"system": "fourth-instar Aedes aegypti larvae", "assay": "Larval mosquito bioassay", "assay_type": "in vivo", "settings": "Aedes aegypti larval mosquitoes; concentration of the 1 ml added to 150 ml water", "description": "Individual groups of 10 fourth-instar Aedes aegypti larvae were contained in 150 ml of water and exposed to […] of essential oils prepared by 2-fold serial dilutions ranging from 0.06%–5.0% in 1 ml of acetone. A control group of larvae were exposed to 1 ml of acetone only.\nIt is important to note that larval mosquitoes are tested in their natural environment, i.e., in water. The particular assays used herein involved groups of 10 larval mosquitoes in 150 ml of water. The weight percentages reported for lethal concentration for larval mosquitoes are the weight percentages added to the 150 ml water (as opposed to the final percentage of the tested compound(s) in the 150 ml water). As one of skill in the art will appreciate, test compound(s) added to a volume of water (such as, 150 ml) can be dramatically diluted depending upon the water solubility of the tested compound. […] If the tested compound is an oil (such as, carvacrol, nootkatone, or 13-hydroxy-valencene), it most likely floats on the surface of the water."}, "X. cheopis adults": {"system": "X. cheopis adults", "assay": "Flea bioassay, treated 2-dram vials, probit analysis", "assay_type": "in vivo, Xenopsylla cheopis", "settings": "24 h exposure"}, "I. scapularis nymphs": {"system": "I. scapularis nymphs", "assay": "Tick bioassay, treated 2-dram vials, probit analysis", "assay_type": "in vivo, Ixodes scapularis", "description": "A control treated with acetone only was run with each series.\nFor each time point, if ticks and fleas were incapable of movement, maintaining normal posture, leg coordination, ability to right themselves, or any signs of life, they were considered moribund or dead."}, "[2]": {"settings": "Ixodes scapularis nymphal ticks, alone, or 1:1 with carvacrol (in parenthesis)"}}, "data": [{"compound": "C=C(C)[C@@H]1CCC2=CC(=O)C[C@@H](C)[C@]2(C)C1", "note": "[Compound 7, Nootkatone]", "values": [{"measurement": "LC50 (1 h)", "setting": "[1]", "result": "5.327 % (wt:vol)"}, {"measurement": "LC50 (24 h)", "setting": "[1]", "result": "1.605 % (wt:vol)"}, {"measurement": "LC90 (1 hr)", "setting": "[1]", "result": "14.045 % (wt:vol)"}, {"measurement": "LC90 (24 h)", "setting": "[1]", "result": "2.59 % (wt:vol)"}, {"measurement": "LC90", "setting": "X. cheopis adults; NE = not effective at concentrations tested", "result": "0.019 percent concentration, wt:vol"}, {"measurement": "Slope", "setting": "X. cheopis adults; probit", "result": 3.527}, {"measurement": "LC90", "setting": "I. scapularis nymphs; 24 h exposure, NE = not effective at concentrations tested", "result": "0.0055 percent concentration, wt:vol"}, {"measurement": "Slope", "setting": "I. scapularis nymphs; 24 h exposure, probit", "result": 4.708}, {"measurement": "LC50 (1 h)", "setting": "I. scapularis nymphs; [2]", "result": "0.126 % (wt:vol)"}, {"measurement": "LC50 (24 h)", "setting": "I. scapularis nymphs; [2]", "result": "0.0029 % (wt:vol)"}, {"measurement": "LC90 (1 hr)", "setting": "I. scapularis nymphs; [2]", "result": "0.725 % (wt:vol)"}, {"measurement": "LC90 (24 h)", "setting": "I. scapularis nymphs; [2]", "result": "0.0055 % (wt:vol)"}, {"measurement": "LC50 (24 h)", "setting": "I. scapularis nymphs; Ixodes scapularis nymphal ticks, alone, or 1:1 with carvacrol (in parenthesis), listed as compound 7", "result": "0.0029 % (wt:vol)"}]}]}
